# In US9089565B2, “Compositions and methods for causing neurite outgrowth” (MEDICAL RESEARCH COUNCIL, priority 2009, dated 2015):
# * marks the point of attachment. Myristoyl = CCCCCCCCCCCCCC(=O)*
# T1: NgR1 (Homo sapiens, UniProt Q9BZR6, S281D)
# T1 construct: The cDNAs of NgR1 (NM 023004, Nt. 184-1543); expressed in transfected cells; host or cells: COS7
# T1 sequence (Q9BZR6 27-447 S281D): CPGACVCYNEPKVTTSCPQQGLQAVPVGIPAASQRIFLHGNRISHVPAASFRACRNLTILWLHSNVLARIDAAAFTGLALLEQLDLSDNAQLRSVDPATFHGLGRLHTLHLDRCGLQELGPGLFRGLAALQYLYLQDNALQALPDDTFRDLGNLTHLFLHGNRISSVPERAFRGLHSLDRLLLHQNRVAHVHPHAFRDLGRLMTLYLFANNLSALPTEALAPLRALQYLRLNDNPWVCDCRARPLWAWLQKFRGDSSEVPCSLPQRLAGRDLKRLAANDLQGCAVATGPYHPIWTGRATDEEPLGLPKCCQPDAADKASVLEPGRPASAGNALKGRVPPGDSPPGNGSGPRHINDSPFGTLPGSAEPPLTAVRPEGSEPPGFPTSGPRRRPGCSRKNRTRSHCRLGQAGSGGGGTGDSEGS
# B1: OMgp: oligodendrocyte myelin glycoprotein, His-tagged, purchased from R&D (protein, UniProt P23515 25-417, looked up)
# Oligodendrocyte-myelin …: ICPLQCICTERHRHVDCSGRNLSTLPSGLQENIIHLNLSYNHFTDLHNQLTQYTNLRTLDISNNRLESLPAHLPRSLWNMSAANNNIKLLDKSDTAYQWNLKYLDVSKNMLEKVVLIKNTLRSLEVLNLSSNKLWTVPTNMPSKLHIVDLSNNSLTQILPGTLINLTNLTHLYLHNNKFTFIPDQSFDQLFQLQEITLYNNRWSCDHKQNITYLLKWMMETKAHVIGTPCSTQISSLKEHNMYPTPSGFTSSLFTVSGMQTVDTINSLSVVTQPKVTKIPKQYRTKETTFGATLSKDTTFTSTDKAFVPYPEDTSTETINSHEAAAATLTIHLQDGMVTNTSLTSSTKSSPTPMTLSITSGMPNNFSEMPQQSTTLNLWREETTTNVKTPLPS
# modifications: His tag
# notes: oligodendrocyte myelin glycoprotein, His-tagged, purchased from R&D
# B2: MAG: human myelin-associated glycoprotein, HA-tagged, purified from COS7 conditioned medium (protein)
# chain: GHWGAWMPSSISAFEGTCVSIPCRFDFPDELRPAVVHGVWYFNSPYPKNYPPVVFKSRTQVVHESFQGRSRLLGDLGLRNCTLLLSNVSPELGGKYYFRGDLGGYNQYTFSEHSVLDIVNTPNIVVPPEVVAGTEVEVSCMVPDNCPELRPELSWLGHEGLGEPAVLGRLREDEGTWVQVSLLHFVPTREANGHRLGCQASFPNTTLQFEGYASMDVKYPPVIVEMNSSVEAIEGSHVSLLCGADSNPPPLLTWMRDGTVLREAVAESLLLELEEVTPAEDGVYACLAENAYGQDNRTVGLSVMYAPWKPTVNGTMVAVEGETVSILCSTQSNPDPILTIFKEKQILSTVIYESELQLELPAVSPEDDGEYWCVAENQYGQRATAFNLSVEFAPVLLLESHCAAARDTVQCLCVVKSNPEPSVAFELPSRNVTVNESEREFVYSERSGLVLTSILTLRGQAQAPPRVICTARNLYGAKSLELPFQG
# Legend:
# NgR1 [1] = assay: Phosphorylation of endogenous NgR1 (upper band, immunoblotting) in RA-treated SH-SY5Y cells; assay type: cell-based, human; settings: incubated with BDNF in the presence of kinase inhibitor, 24 hours
# Experimental: FIG. 1. BDNF promotes neurite outgrowth of RA-treated SH-SY5Y, and induces phosphorylation of NgR1. (A) SH-SY5Y cells were incubated with indicated reagents. Cell images were taken with phase contrast microscopy. (B) Number of cells extending neurite-like structures of more than 40 μm and total cell number were counted from images taken in (A). More than 300 cells were examined in each sample. The proportion of cells extending neurite-like structures of more than 40 μm was indicated as a percentage of total cell number. An average of three experiments is shown. Error bars indicate S. E. between experiments. Data were analysed with student's t test. (C) Whole cell extracts were prepared from RA-treated SH-SY5Y cells after incubation with or without BDNF for 24 hours, and were analysed by SDS-PAGE. Immunoblotting was performed with the indicated antibodies. (D) Whole cell extract prepared from cells treated with both RA and BDNF was incubated with the indicated reagents for 1 hour at 37° C. Immunoblotting was performed with anti-NgR1 antibody. (E) RA-treated SH-SY5Y cells were incubated with BDNF in the presence or absence of one of the following: PKC inhibitor—500 nM Gö6983 or Gö6976; PKA inhibitor—2 μM KT5720 or a PKA inhibitor peptide 14-22; or either 500 nM or 1 μM of a casein kinase inhibitor, for 24 hours. Whole cell extracts prepared from these cells were analysed by SDS-PAGE. Immunoblotting was performed with anti-NgR1 antibody.
# SH-SY5Y cells were cultured in Ham's F12 medium with 10% foetal bovine serum at 37° C. in 5% CO2 and 95% air. Passage numbers between 15 and 21 were used in experiments described in this paper. Further passages induce spontaneous differentiation and cells tend to extend neurites without BDNF (data not shown). For RA treatment, the cells are seeded (20,000 cells/well) on collagen IV coated 4 well chamber slides. After 24 hours culture, medium was changed to Ham's F12 medium containing 10 μM RA and 10% foetal bovine serum. Medium was changed to fresh medium on day 3 and cells were used for experiments after 5 days culture. Encinas et al. (18) reported that RA-treated SH-SY5Y cells initiate apoptosis after withdrawal of serum only when the cells are cultured at low density. The cell density used in this paper was higher than that in the paper by Encinas et al. (18) and cell death due to depletion of serum or BDNF was not significant. In this paper, the SH-SY5Y cells treated with RA for 5 days are called RA-treated SH-SY5Y. For BDNF treatment, the RA-treated SH-SY5Y cells were washed with serum-free Ham's F12 medium and incubated with 25 ng/ml BDNF in serum-free Ham's F12 medium for 24 hours. As a control (RA alone), the RA-treated SH-SY5Y cells were incubated with serum-free Ham's F12 alone for 24 hours.
# Cells were scraped off from dishes and washed with PBS twice, and then resuspended in PBS containing 0.1% Triton X100 and phosphatase inhibitor cocktail (Roche) and EDTA-free protease inhibitor cocktail (Roche). After incubation for 15 min on ice, samples were centrifuged at 14,000×g for 20 min at 4° C. The supernatants containing 30 μg of proteins were analysed by SDS-PAGE and blotted to PVDF membrane. The PVDF membrane was incubated in blocking buffer (5% skimmed milk, 0.4% Triton X-100 in PBS) for 1 hour, first antibody diluted in the blocking buffer and appropriate secondary antibody labelled with horse radish peroxidase. Bound antibodies were visualised with ECL or ECL Plus kit (GE healthcare).
# NgR1 [2] = molecular target: T1, NgR1; assay: Binding of OMgp to COS7 cells over-expressing NgR1; settings: 281S/D mutant NgR1
# Experimental: (§1) FIG. 3. CK2 phosphorylates NgR1, and inhibits binding of the myelin-associated proteins to NgR1. (A) Myc-tagged wild type, 281S/A or 281S/D mutant NgR1 were over-expressed in COS7 cells. The over-expressed cells were incubated with either the combination of ATP and CK2, or NEP1-40 for 30 min at 37° C. After washing with PBS, cells were incubated with Hisx6-tagged Nogo-GFP for 3 hours at 4° C. The cells were fixed and immunofluorescence was performed with anti-Myc and anti-GFP antibodies. (B) COS7 cells over-expressing Myc-tagged wild type NgR1 were treated as described in (A). Proteins were extracted and the Myc-tagged NgR1 was immunoprecipitated with anti-Myc antibody. Co-precipitated Hisx6-tagged Nogo-GFP was detected by anti-GFP antibody. […] The biotinylated proteins were fractionated and analysed by SDS-PAGE. Biotinylated NgR1-Myc was detected with anti-Myc. antibody. […] Myc-tagged proteins were immunoprecipitated and analysed with SDS-PAGE. […]
# (§2) After treatment with or without CK2, COS7 cells over-expressing wild type or mutant NgR were incubated with Hisx6 tagged Nogo-GFP (10 μg/ml), HA-MAG (50 μg/ml) or Hisx6 tagged OMgp (10 μg/ml) in PBS for 3 hours at 4° C. […] Biotinylated proteins were precipitated with streptavidin beads and were analysed by SDS-PAGE. Each sample fractionated from 5×10^6 cells was analysed by SDS-PAGE.
# NgR1 [3] = molecular target: T1, NgR1; assay: Binding of MAG to COS7 cells over-expressing NgR1; settings: 281S/D mutant NgR1
# Experimental: as §1, §2
Molecule,level of the upper band of NgR1 (NgR1 [1]),other results
COc1ccc2c(c1)c(C1=C(c3c[nH]c4ccccc34)C(=O)NC1=O)cn2CCCN(C)C [Gö6983],"Neither PKC inhibitors Gö6983 and Gö6976, nor PKA inhibitors KT 5720 and a PKA inhibitor peptide, show effects",–
"Brc1c(Br)c(Br)c2[nH]nnc2c1Br [CK2 inhibitor, 4,5,6,7-Tetrabromo-2-azabenzimidazole]",decreased the upper band,–
"PKA inhibitor peptide: myristoylated PKA inhibitor peptide 14-22 amide, purchased from Merck (Myristoyl-SGRTGRRNA-NH2; SMILES CCCCCCCCCCCCCC(=O)N[C@@H](CO)C(=O)NCC(=O)N[C@@H](CCCNC(=N)N)C(=O)N[C@H](C(=O)NCC(=O)N[C@@H](CCCNC(=N)N)C(=O)N[C@@H](CCCNC(=N)N)C(=O)N[C@@H](CC(N)=O)C(=O)N[C@@H](C)C(N)=O)[C@@H](C)O; UniProt P61925 14-22, looked up, fragment)","Neither PKC inhibitors Gö6983 and Gö6976, nor PKA inhibitors KT 5720 and a PKA inhibitor peptide, show effects",–
Cn1c2ccccc2c2c3c(c4c5ccccc5n(CCC#N)c4c21)CNC3=O [Gö6976],"Neither PKC inhibitors Gö6983 and Gö6976, nor PKA inhibitors KT 5720 and a PKA inhibitor peptide, show effects",–
CCCCCCOC(=O)[C@]1(O)C[C@@H]2O[C@@]1(C)n1c3ccccc3c3c4c(c5c6ccccc6n2c5c31)C(=O)NC4 [KT 5720],"Neither PKC inhibitors Gö6983 and Gö6976, nor PKA inhibitors KT 5720 and a PKA inhibitor peptide, show effects",–
B1,–,binding of ligand to cells (NgR1 [2]): Neither OMgp nor MAG bound
B2,–,binding of ligand to cells (NgR1 [3]): Neither OMgp nor MAG bound
